Measurements as given in patent publication US20090253667A1, “18 ,21-Didesoxymacbecin Derivatives for the Treatment of Cancer” (priority 2006, published 2009).

Key:
[1] = biological target: Yeast Hsp90 (Saccharomyces cerevisiae, UniProt P02829); assay: Isothermal titration calorimetry, Kd for Hsp90 binding; conditions: ITC at 30° C., 0.008 mM yeast Hsp90, 2% DMSO
Protocol: Yeast Hsp90 was dialysed against 20 mM Tris pH 7.5 containing 1 mM EDTA and 5 mM NaCl and then diluted to 0.008 mM in the same buffer, but containing 2% DMSO. The test compounds were dissolved in 100% DMSO at a concentration of 50 mM and subsequently diluted to 0.1 mM in the same buffer as for Hsp90 with 2% DMSO. Heats of interaction were measured at 30° C. on a MSC system (Microcal), with a cell volume of 1.458 mL. 10 aliquots of 0.027 mL of 0.100 mM of each test compound were injected into 0.008 mM yeast Hsp90. Heats of dilution were determined in a separate experiment by injecting the test compound into buffer containing 2% DMSO, and the corrected data fitted using a nonlinear least square curve-fitting algorithm (Microcal Origin) with three floating variables: stoichiometry, binding constant and change in enthalpy of interaction.

[2] = system: CNXF 498NL; assay: Monolayer proliferation assay (modified propidium iodide assay); type: cell-based, human; conditions: 4 days continuous exposure
Protocol: (§1) In vitro evaluation of compounds for anticancer activity in a panel of human tumour cell lines in a monolayer proliferation assay were carried out at the Oncotest Testing Facility, Institute for Experimental Oncology, Oncotest GmbH, Freiburg.
(§2) The Oncotest cell lines were established from human tumor xenografts as described by Roth et al., (1999). The origin of the donor xenografts was described by Fiebig et al., (1999). Other cell lines were either obtained from the NCI (DU145, MCF-7) or purchased from DSMZ, Braunschweig, Germany.
(§3) All cell lines, unless otherwise specified, were grown at 37° C. in a humidified atmosphere (95% air, 5% CO2) in a ‘ready-mix’ medium containing RPMI 1640 medium, 10% fetal calf serum, and 0.1 mg/mL gentamicin (PAA, Cölbe, Germany).
(§4) A modified propidium iodide assay was used to assess the effects of the test compound(s) on the growth of human tumour cell lines (Dengler et al., (1995)).
(§5) Briefly, cells were harvested from exponential phase cultures by trypsinization, counted and plated in 96 well flat-bottomed microtitre plates at a cell density dependent on the cell line (5-10.000 viable cells/well). After 24 h recovery to allow the cells to resume exponential growth, 0.010 mL of culture medium (6 control wells per plate) or culture medium containing the 18,21-didesoxymacbecin analogue was added to the wells. Each concentration was plated in triplicate. Compounds were applied in five concentrations (100; 10; 1; 0.1 and 0.01 μg/ml). Following 4 days of continuous exposure, cell culture medium with or without test compound was replaced by 0.2 mL of an aqueous propidium iodide (PI) solution (7 mg/L). To measure the proportion of living cells, cells may be permeabilized by freezing the plates. After thawing the plates, fluorescence was measured using the Cytofluor 4000 microplate reader (excitation 530 nm, emission 620 nm), giving a direct relationship to the total number of viable cells. Growth inhibition may be expressed as treated/control×100 (% T/C). This can be plotted as a graph of % T/C against concentration of test compound applied, which can then be used to calculate the concentration necessary to inhibit cell growth by 70% (IC70).
(§6) In vitro evaluation of the test compounds for anticancer activity in a panel of human tumour cell lines in a monolayer proliferation assay was carried out as described in the general methods using a modified propidium iodide assay.

[3] = system: CXF HT29; assay: as above; type: cell-based, human; conditions: 4 days continuous exposure
Protocol: as §1, §2, §3, §4, §5, §6

[4] = system: DU145; assay: as above; type: cell-based, human; conditions: 4 days continuous exposure
Protocol: as §1, §2, §3, §4, §5, §6

[5] = system: LXF 1121L; assay: as above; type: cell-based, human; conditions: 4 days continuous exposure
Protocol: as §1, §2, §3, §4, §5, §6

[6] = system: MCF-7; assay: as above; type: cell-based, human; conditions: 4 days continuous exposure
Protocol: as §1, §2, §3, §4, §5, §6

[7] = system: MEXF 394NL; assay: as above; type: cell-based, human; conditions: 4 days continuous exposure
Protocol: as §1, §2, §3, §4, §5, §6

[8] = system: panel of human tumour cell lines; assay: Monolayer proliferation assay, mean IC70 across the cell line panel; type: cell-based; conditions: geometric mean of all replicates across the six cell lines
Protocol: as §1, §2, §3, §4, §5, §6

[9] = biological target: Hsp90 (Homo sapiens, UniProt P07900); conditions: cited from earlier work

Sequence of Yeast Hsp90 (P02829 whole entry): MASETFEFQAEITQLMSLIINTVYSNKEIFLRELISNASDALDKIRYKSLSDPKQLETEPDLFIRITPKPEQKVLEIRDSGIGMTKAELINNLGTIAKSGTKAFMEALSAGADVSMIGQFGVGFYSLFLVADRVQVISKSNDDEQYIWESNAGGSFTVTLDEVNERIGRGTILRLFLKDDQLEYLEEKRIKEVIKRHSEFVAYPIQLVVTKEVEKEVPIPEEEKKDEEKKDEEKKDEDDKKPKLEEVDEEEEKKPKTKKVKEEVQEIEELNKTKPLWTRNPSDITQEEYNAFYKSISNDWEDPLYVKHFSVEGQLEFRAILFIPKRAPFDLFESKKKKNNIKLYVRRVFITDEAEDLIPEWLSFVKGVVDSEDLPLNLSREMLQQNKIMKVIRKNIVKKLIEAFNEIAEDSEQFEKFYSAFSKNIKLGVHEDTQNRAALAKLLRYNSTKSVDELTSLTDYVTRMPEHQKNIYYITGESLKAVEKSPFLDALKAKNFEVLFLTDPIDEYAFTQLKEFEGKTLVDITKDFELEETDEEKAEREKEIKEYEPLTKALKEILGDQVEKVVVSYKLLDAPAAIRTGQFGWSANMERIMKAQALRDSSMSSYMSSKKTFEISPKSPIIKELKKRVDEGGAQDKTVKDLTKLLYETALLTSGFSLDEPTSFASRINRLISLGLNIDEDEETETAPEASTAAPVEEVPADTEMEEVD

For `CO[C@H]1C[C@H](C)Cc2cc(ccc2F)NC(=O)/C(C)=C/CC[C@H](C)[C@@H](OC(N)=O)/C(C)=C/[C@H](C)[C@H]1O` [Compound 17, 4,5-dihydro-11-O-desmethyl-15-desmethoxy-17-fluoro-18,21-didesoxymacbecin], the Kd [1] was 19 nM, the “Test/Control (%) at drug concentration” value ([2]; 0.01 μg/mL) was 97% and the “Test/Control (%) at drug concentration” value ([2]; 0.1 μg/mL) was 22%. For the same compound, the “Test/Control (%) at drug concentration” value ([2]; 1 μg/mL) was 7%, the “Test/Control (%) at drug concentration” value ([2]; 10 μg/mL) was 8% and the “Test/Control (%) at drug concentration” value ([2]; 100 μg/mL) was 7%. The “Test/Control (%) at drug concentration” value ([3]; CXF HT29, 0.01 μg/mL) was 102%, the “Test/Control (%) at drug concentration” value ([3]; CXF HT29, 0.1 μg/mL) was 49% and the “Test/Control (%) at drug concentration” value ([3]; CXF HT29, 1 μg/mL) was 7%. For the same compound, the “Test/Control (%) at drug concentration” value ([3]; CXF HT29, 10 μg/mL) was 7%, the “Test/Control (%) at drug concentration” value ([3]; CXF HT29, 100 μg/mL) was 8% and the “Test/Control (%) at drug concentration” value ([4]; DU145, 0.01 μg/mL) was 93%. For the same compound, the “Test/Control (%) at drug concentration” value ([4]; DU145, 0.1 μg/mL) was 7%, the “Test/Control (%) at drug concentration” value ([4]; DU145, 1 μg/mL) was 8% and the “Test/Control (%) at drug concentration” value ([4]; DU145, 10 μg/mL) was 10%. The “Test/Control (%) at drug concentration” value ([4]; DU145, 100 μg/mL) was 9%, the “Test/Control (%) at drug concentration” value ([5]; 0.01 μg/mL) was 100% and the “Test/Control (%) at drug concentration” value ([5]; 0.1 μg/mL) was 41%. The “Test/Control (%) at drug concentration” value ([5]; 1 μg/mL) was 10%, the “Test/Control (%) at drug concentration” value ([5]; 10 μg/mL) was 11% and the “Test/Control (%) at drug concentration” value ([5]; 100 μg/mL) was 11%. The “Test/Control (%) at drug concentration” value ([6]; MCF-7, 0.01 μg/mL) was 86%, the “Test/Control (%) at drug concentration” value ([6]; MCF-7, 0.1 μg/mL) was 20% and the “Test/Control (%) at drug concentration” value ([6]; MCF-7, 1 μg/mL) was 10%. For the same compound, the “Test/Control (%) at drug concentration” value ([6]; MCF-7, 10 μg/mL) was 10%, the “Test/Control (%) at drug concentration” value ([6]; MCF-7, 100 μg/mL) was 8% and the “Test/Control (%) at drug concentration” value ([7]; 0.01 μg/mL) was 101%. For the same compound, the “Test/Control (%) at drug concentration” value ([7]; 0.1 μg/mL) was 21%, the “Test/Control (%) at drug concentration” value ([7]; 1 μg/mL) was 4% and the “Test/Control (%) at drug concentration” value ([7]; 10 μg/mL) was 3%. The “Test/Control (%) at drug concentration” value ([7]; 100 μg/mL) was 3% and the “average IC70 value across the cell-line panel” value [8] was 0.106 µg/mL.
For `CO[C@H]1[C@@H](OC)C[C@H](C)[C@@H](OC)C2=CC(=O)C=C(NC(=O)/C(C)=C/C=C\[C@H](C)[C@@H](OC(N)=O)/C(C)=C/[C@@H]1C)C2=O` [macbecin], the “average IC70 value across the cell-line panel” value [8] was 0.21 µg/mL.
With `CO[C@H]1C[C@H](C)Cc2cc(F)cc(c2)NC(=O)/C(C)=C/CC[C@H](C)[C@@H](OC(N)=O)/C(C)=C/[C@H](C)[C@H]1O` [Compound 18, 4,5-dihydro-11-O-desmethyl-15-desmethoxy-18-fluoro-18,21-didesoxymacbecin] the Kd [1] was 23.5 nM, the “Test/Control (%) at drug concentration” value ([2]; 0.01 μg/mL) was 64% and the “Test/Control (%) at drug concentration” value ([2]; 0.1 μg/mL) was 9%. The “Test/Control (%) at drug concentration” value ([2]; 1 μg/mL) was 9%, the “Test/Control (%) at drug concentration” value ([2]; 10 μg/mL) was 11% and the “Test/Control (%) at drug concentration” value ([2]; 100 μg/mL) was 9%. For the same compound, the “Test/Control (%) at drug concentration” value ([3]; CXF HT29, 0.01 μg/mL) was 98%, the “Test/Control (%) at drug concentration” value ([3]; CXF HT29, 0.1 μg/mL) was 14% and the “Test/Control (%) at drug concentration” value ([3]; CXF HT29, 1 μg/mL) was 11%. The “Test/Control (%) at drug concentration” value ([3]; CXF HT29, 10 μg/mL) was 13%, the “Test/Control (%) at drug concentration” value ([3]; CXF HT29, 100 μg/mL) was 11% and the “Test/Control (%) at drug concentration” value ([4]; DU145, 0.01 μg/mL) was 66%. The “Test/Control (%) at drug concentration” value ([4]; DU145, 0.1 μg/mL) was 9%, the “Test/Control (%) at drug concentration” value ([4]; DU145, 1 μg/mL) was 8% and the “Test/Control (%) at drug concentration” value ([4]; DU145, 10 μg/mL) was 9%. The “Test/Control (%) at drug concentration” value ([4]; DU145, 100 μg/mL) was 6%, the “Test/Control (%) at drug concentration” value ([5]; 0.01 μg/mL) was 94% and the “Test/Control (%) at drug concentration” value ([5]; 0.1 μg/mL) was 43%. The “Test/Control (%) at drug concentration” value ([5]; 1 μg/mL) was 13%, the “Test/Control (%) at drug concentration” value ([5]; 10 μg/mL) was 13% and the “Test/Control (%) at drug concentration” value ([5]; 100 μg/mL) was 12%. The “Test/Control (%) at drug concentration” value ([6]; MCF-7, 0.01 μg/mL) was 77%, the “Test/Control (%) at drug concentration” value ([6]; MCF-7, 0.1 μg/mL) was 27% and the “Test/Control (%) at drug concentration” value ([6]; MCF-7, 1 μg/mL) was 12%. The “Test/Control (%) at drug concentration” value ([6]; MCF-7, 10 μg/mL) was 12%, the “Test/Control (%) at drug concentration” value ([6]; MCF-7, 100 μg/mL) was 8% and the “Test/Control (%) at drug concentration” value ([7]; 0.01 μg/mL) was 91%. For the same compound, the “Test/Control (%) at drug concentration” value ([7]; 0.1 μg/mL) was 24%, the “Test/Control (%) at drug concentration” value ([7]; 1 μg/mL) was 7% and the “Test/Control (%) at drug concentration” value ([7]; 10 μg/mL) was 5%. The “Test/Control (%) at drug concentration” value ([7]; 100 μg/mL) was 4% and the “average IC70 value across the cell-line panel” value [8] was 0.077 µg/mL.
In the case of `CO[C@H]1C[C@H](C)Cc2cc(O)cc(c2)NC(=O)/C=C/CC[C@H](OC)[C@@H](OC(N)=O)/C(C)=C/[C@H](C)[C@H]1O` [KOSN1559], the “binding affinity to Hsp90 relative to 17-AAG” value ([9]; greater binding affinity than 17-AAG) is listed as 8 fold and the “binding affinity to Hsp90 relative to geldanamycin” value ([9]; greater binding affinity than geldanamycin) is listed as 4 fold.
With `CO[C@H]1C[C@H](C)Cc2cccc(c2)NC(=O)/C(C)=C/CC[C@H](C)[C@@H](OC(N)=O)/C(C)=C/[C@H](C)[C@H]1O` [Compound 16, 4,5-dihydro-11-O-desmethyl-15-desmethoxy-18,21-didesoxymacbecin] the Kd [1] was 20 nM, the “Test/Control (%) at drug concentration” value ([2]; 0.01 μg/mL) was 100% and the “Test/Control (%) at drug concentration” value ([2]; 0.1 μg/mL) was 19%. For the same compound, the “Test/Control (%) at drug concentration” value ([2]; 1 μg/mL) was 8%, the “Test/Control (%) at drug concentration” value ([2]; 10 μg/mL) was 8% and the “Test/Control (%) at drug concentration” value ([2]; 100 μg/mL) was 6%. The “Test/Control (%) at drug concentration” value ([3]; CXF HT29, 0.01 μg/mL) was 106%, the “Test/Control (%) at drug concentration” value ([3]; CXF HT29, 0.1 μg/mL) was 52% and the “Test/Control (%) at drug concentration” value ([3]; CXF HT29, 1 μg/mL) was 8%. The “Test/Control (%) at drug concentration” value ([3]; CXF HT29, 10 μg/mL) was 7%, the “Test/Control (%) at drug concentration” value ([3]; CXF HT29, 100 μg/mL) was 6% and the “Test/Control (%) at drug concentration” value ([4]; DU145, 0.01 μg/mL) was 96%. The “Test/Control (%) at drug concentration” value ([4]; DU145, 0.1 μg/mL) was 47%, the “Test/Control (%) at drug concentration” value ([4]; DU145, 1 μg/mL) was 8% and the “Test/Control (%) at drug concentration” value ([4]; DU145, 10 μg/mL) was 8%. For the same compound, the “Test/Control (%) at drug concentration” value ([4]; DU145, 100 μg/mL) was 8%, the “Test/Control (%) at drug concentration” value ([5]; 0.01 μg/mL) was 106% and the “Test/Control (%) at drug concentration” value ([5]; 0.1 μg/mL) was 48%. For the same compound, the “Test/Control (%) at drug concentration” value ([5]; 1 μg/mL) was 10%, the “Test/Control (%) at drug concentration” value ([5]; 10 μg/mL) was 7% and the “Test/Control (%) at drug concentration” value ([5]; 100 μg/mL) was 5%. The “Test/Control (%) at drug concentration” value ([6]; MCF-7, 0.01 μg/mL) was 83%, the “Test/Control (%) at drug concentration” value ([6]; MCF-7, 0.1 μg/mL) was 21% and the “Test/Control (%) at drug concentration” value ([6]; MCF-7, 1 μg/mL) was 10%. For the same compound, the “Test/Control (%) at drug concentration” value ([6]; MCF-7, 10 μg/mL) was 11%, the “Test/Control (%) at drug concentration” value ([6]; MCF-7, 100 μg/mL) was 10% and the “Test/Control (%) at drug concentration” value ([7]; 0.01 μg/mL) was 100%. The “Test/Control (%) at drug concentration” value ([7]; 0.1 μg/mL) was 64%, the “Test/Control (%) at drug concentration” value ([7]; 1 μg/mL) was 7% and the “Test/Control (%) at drug concentration” value ([7]; 10 μg/mL) was 5%. The “Test/Control (%) at drug concentration” value ([7]; 100 μg/mL) was 3% and the “average IC70 value across the cell-line panel” value [8] was 0.193 µg/mL.
